Data on six compounds can be found in ChEMBL document CHEMBL4699579, “A Peptidyl Inhibitor that Blocks Calcineurin-NFAT Interaction and Prevents Acute Lung Injury” (J Med Chem, 2020).

Molecules are shown by their SMILES. Starred links: 1 amine or outer side, 2 acyl side, 3 side chain; linkers in the order of their positions; H or OH if unused. Non-standard residues stand in square brackets, D forms with d. Residues, ends and D or L forms follow the SMILES beside them. *: point of attachment. X5 = O=C(O)c1cc(NC(=S)*)ccc1-c1c2ccc(=O)cc-2oc2cc(O)ccc12; X3 = CC1(C)SC[C@@H](C(=O)[*:2])N1[*:1]; Cyclohexanecarbonyl = O=C(C1CCCCC1)*; Cyclopentanecarbonyl = O=C(C1CCCC1)*; X7 = O=C(c1cc(F)c(F)c(F)c1F)*; Tle = CC(C)(C)[C@H](N)C(=O)O

The nature of data set [1]: Half life in 25% human serum at 5 uM at 37 degC by HPLC analysis. In kind it is ADME, cell-free.
Data set [2] is described as follows: Binding affinity to GST-tagged Calcineurin (unknown origin) incubated for 1 hr by fluorescence polarization assay. Further details: species or system Homo sapiens.

As usually defined, the half-life is the time in which the quantity being followed falls by half. The compound `CC[C@H](C)[C@H](NC(=O)[C@@H](NC(=O)[C@@H]1CCCN1C(=O)[C@H](Cc1cnc[nH]1)NC(=O)[C@@H]1CCCN1C(=O)CN)C(C)C)C(=O)N[C@H](C(=O)N[C@H](C(=O)N[C@H](C(=O)NCC(=O)N1CCC[C@H]1C(=O)N[C@@H](Cc1cnc[nH]1)C(=O)N[C@@H](CCC(=O)O)C(=O)N[C@@H](CCC(=O)O)C(=O)O)[C@@H](C)O)[C@@H](C)CC)C(C)C` had a half-life at 5 µM in data set [1] of 1 h.

The term Kd denotes the equilibrium constant for the complex coming apart. `CC[C@H](C)[C@H](NC(=O)[C@@H](NC(=O)[C@@H](NC(=O)[C@@H](NC(=O)[C@@H]1CCCN1C(=O)[C@H](Cc1cnc[nH]1)NC(=O)[C@@H]1CCCN1C(=O)CN)C(C)(C)C)[C@@H](C)CC)C(C)(C)C)C(=O)N[C@H](C(=O)NCC(=O)N1[C@H](C(=O)N[C@@H](Cc2cnc[nH]2)C(=O)N[C@@H](CCC(=O)O)C(=O)N[C@@H](CCC(=O)O)C(=O)O)CSC1(C)C)[C@@H](C)O` (H-GPHP[Tle]I[Tle]ITG[X3]HEE-OH) had a half-life at 5 µM in data set [1] of 6 h. Also, in data set [2], the dissociation constant (Kd) came out at 2.6 nM.

For the compound `CC[C@H](C)[C@H](NC(=O)[C@@H](NC(=O)c1cc(F)c(F)c(F)c1F)C(C)(C)C)C(=O)N[C@H](C(=O)N[C@H](C(=O)N[C@H](C(=O)NCC(=O)N1CCC[C@H]1C(=O)N[C@@H](Cc1c[nH]cn1)C(=O)N[C@@H](CCC(=O)O)C(=O)N[C@@H](CCC(=O)O)C(=O)N[C@@H](Cc1ccc(O)cc1)C(=O)N[C@@H](CCCCNC(=S)Nc1ccc(-c2c3ccc(=O)cc-3oc3cc(O)ccc23)c(C(=O)O)c1)C(N)=O)[C@@H](C)O)[C@@H](C)CC)C(C)(C)C` (X7-[Tle]I[Tle]ITGPHEEYK(X5)-NH2), the Kd in data set [2] is 32 nM.

As to `CC[C@H](C)[C@H](NC(=O)[C@@H](NC(=O)CNC(=O)[C@H](Cc1c[nH]cn1)NC(=O)[C@@H]1CCCN1C(=O)CNC(C)=O)C(C)(C)C)C(=O)N[C@H](C(=O)N[C@H](C(=O)N[C@H](C(=O)NCC(=O)N1CCC[C@H]1C(=O)N[C@@H](Cc1c[nH]cn1)C(=O)N[C@@H](CCC(=O)O)C(=O)N[C@@H](CCC(=O)O)C(=O)N[C@@H](Cc1ccc(O)cc1)C(=O)N[C@@H](CCCCNC(=S)Nc1ccc(-c2c3ccc(=O)cc-3oc3cc(O)ccc23)c(C(=O)O)c1)C(N)=O)[C@@H](C)O)[C@@H](C)CC)C(C)(C)C` (Ac-GPHG[Tle]I[Tle]ITGPHEEYK(X5)-NH2), the Kd in data set [2] was found to be 92 nM.

Regarding `CC[C@H](C)[C@H](NC(=O)[C@@H](NC(=O)C1CCCCC1)C(C)(C)C)C(=O)N[C@H](C(=O)N[C@H](C(=O)N[C@H](C(=O)NCC(=O)N1CCC[C@H]1C(=O)N[C@@H](Cc1c[nH]cn1)C(=O)N[C@@H](CCC(=O)O)C(=O)N[C@@H](CCC(=O)O)C(=O)N[C@@H](Cc1ccc(O)cc1)C(=O)N[C@@H](CCCCNC(=S)Nc1ccc(-c2c3ccc(=O)cc-3oc3cc(O)ccc23)c(C(=O)O)c1)C(N)=O)[C@@H](C)O)[C@@H](C)CC)C(C)(C)C` (Cyclohexanecarbonyl-[Tle]I[Tle]ITGPHEEYK(X5)-NH2), the Kd in data set [2] came to 207 nM.

As to `CC[C@H](C)[C@H](NC(=O)[C@@H](NC(=O)C1CCCC1)C(C)(C)C)C(=O)N[C@H](C(=O)N[C@H](C(=O)N[C@H](C(=O)NCC(=O)N1CCC[C@H]1C(=O)N[C@@H](Cc1c[nH]cn1)C(=O)N[C@@H](CCC(=O)O)C(=O)N[C@@H](CCC(=O)O)C(=O)N[C@@H](Cc1ccc(O)cc1)C(=O)N[C@@H](CCCCNC(=S)Nc1ccc(-c2c3ccc(=O)cc-3oc3cc(O)ccc23)c(C(=O)O)c1)C(N)=O)[C@@H](C)O)[C@@H](C)CC)C(C)(C)C` (Cyclopentanecarbonyl-[Tle]I[Tle]ITGPHEEYK(X5)-NH2), the dissociation constant Kd in data set [2] was 357 nM.
